Measurements published in patent publication US12582667B2, “Compositions and methods to treat metastatic gastrointestinal cancer” (The Rockefeller University, priority 2019, dated 2026).

Tests used:
CRC cells [1] = experiment: In vitro hypoxia cell growth assay with leflunomide; type: cell-based, human; conditions: for impairment of proliferation, hypoxia versus normoxia: hypoxia compared with normoxia
Experimental: In Vitro Hypoxia Cell Growth Assays
Lvm3b cells or LS174T cells were grown under normoxia for 24 hours followed by incubation for 5 days under 0.5% oxygen and then counted using the Sceptor 2.0 automated Cell Counter (Millipore).
Dihydroorotate Dehydrogenase (DHODH) is a key enzyme in the metabolic pathway that […] dihydroorotate to orotate, which is ultimately converted to the pyrimidine nucleotides UTP and CTP. To further confirm that pyrimidine biosynthesis promotes CRC hypoxic growth, CRC growth upon DHODH inhibition was assessed.

Lvm3b cells [2] = experiment: Lvm3b liver metastatic colonization in athymic nude mice; type: in vivo, mouse
Experimental: FIGS. 3A and 3B are a set of diagrams showing the effects of the DHODH inhibitor in inhibiting liver metastatic colonization. […] The mice were imaged every week. Firefly luciferase bioluminescent images are shown (p<0.0001, Student's t-test).
(§1) All animal work was conducted in accordance with a protocol approved by the Institutional Animal Care and Use Committee (IACUC) at The Rockefeller University and Memorial Sloan Kettering Cancer Center. […] For functional studies of PCK1, colorectal cancer cells (SW480 or LS174T) that had been stably transduced with a luciferase reporter (Ponomarev et al., 2004) were subjected to portal circulation injection in NSG mice; after two minutes, a splenectomy was performed. For functional and pharmacology studies of DHODH, colorectal cancer cells (Lvm3b) that had been stably transduced with a luciferase reporter were subjected to portal circulation injection in athymic nude mice; after two minutes, a splenectomy was performed. Mice were imaged weekly; experiments were terminated when the luciferase signal had saturated or the mice were too ill, whichever occurred first.
Chow was removed from cages four hours prior to injection of LS174T cells. Gavage with either 3-MPA (200 mg/kg in aqueous solution) or placebo was performed one hour prior to the injection of LS174T cells. 1×10^6 LS174T cells were injected into the portal systemic circulation as described in the Animals section above. Chow was returned to cages after injection. On day 1, chow was removed from cages; 3-MPA or placebo was administered via gavage four hours post-chow removal. Chow was returned to cages four hours after drug administration. Mice were imaged bi-weekly. […] An equivalent volume of DMSO was intraperitoneally injected every day to the control cohort.
To directly test this, highly metastatic LVM3b CRC cells of DHODH were depleted.

[3] = system: two distinct CRC populations; experiment: Primary tumor growth of CRC populations under leflunomide; type: in vivo; conditions: leflunomide treatment
HS746T cells = experiment: HS746T subcutaneous tumor growth in NSG mice; type: in vivo, mouse; conditions: uridine administration, HS746T tumor (FIG. 4C)
Experimental: MPK: mg/kg body weight of mouse. Tumor size was measured by a digital caliper, and tumor volume was calculated as volume=[…].
Cg-Prkdc^scid Il2rg^tm1Wjl/SzJ (Nod-Scid-Gamma; NSG) mice (n=4 per each cohort).

GAS HI tumor = experiment: GAS HI patient-derived tumor growth in athymic nude mice; type: in vivo, mouse; conditions: uridine administration, patient-derived tumor (FIG. 5B; text says FIGS. 5A and 5B)
CRC cells [4] = experiment: Uridine rescue of hypoxic growth of PCK1 depleted CRC cells; type: cell-based, human; conditions: uridine supplementation, hypoxia
Experimental: In Vitro Hypoxia Cell Growth Assays Lvm3b cells or LS174T cells were grown under normoxia for 24 hours followed by incubation for 5 days under 0.5% oxygen and then counted using the Sceptor 2.0 automated Cell Counter (Millipore). The above findings reveal that liver metastatic CRC cells enhance pyrimidine levels and that PCK1 drives pyrimidine nucleotide levels under hypoxia. […] To directly test this, whether the growth defect of PCK1 depletion upon hypoxia could be rescued by the pyrimidine nucleoside uridine was determined. […] The results reveal PCK1 induction to be a mechanism employed by CRC cells to enhance pyrimidine nucleotide levels under hypoxia to promote growth.

Solubility of β-GPA = type: physicochemical
LS174T cells [5] = experiment: 3-Mercaptopicolinic acid in vitro growth assay; type: cell-based, human; conditions: 24-hour exposure to 1 mM 3 MPA in media, terminated on day 5
Experimental: 3-Mercaptopicolinic Acid In Vitro Growth Assay
LS174T cells were seeded in 6-well plates. On day 1, the media was replaced with either control media or media supplemented with 1 mM 3 MPA. On day 2, all the media was replaced with control media. The experiment was terminated on day 5.
2×10^4 LS174T cells were seeded in triplicate. On day 1, the media was replaced with either control media or media supplemented with 1 mM 3 MPA. On day 2, all the media was replaced with control media. The experiment was terminated on day 5.

CRC cells [6] = experiment: Liver colonization after portal circulation injection of 3-MPA pre-treated CRC cells; type: in vivo, mouse; conditions: cells pre-treated in vitro for 24 hours, then portal circulation injection; p=0.01
Experimental: as §1
Due to the strong reduction in mCRC liver colonization observed upon PCK1 depletion, it was hypothesized that PCK1 inhibition may represent a potential therapeutic strategy for impairing CRC metastatic progression. In vivo proof-of-principle experiments were performed in two independent CRC cell lines with a PCK1-inhibitor, 3-mercaptopicolinic acid (3-MPA) (N. W. DiTullio, et al. Biochem J 138, 387-394 (1974)). […]

LS174T cells [7] = experiment: Subcutaneous tumor growth of 3-MPA pre-treated LS174T cells; type: in vivo, mouse; conditions: pre-treatment of LS174T cells with 3-MPA
LS174T cells [8] = experiment: Oral gavage of 3-MPA, LS174T liver colonization model; type: in vivo, mouse; conditions: oral gavage 200 mg/kg prior to cell injection and on day one
Experimental: as §1
Chow was removed from cages four hours prior to injection of LS174T cells. Gavage with either 3-MPA (200 mg/kg in aqueous solution) or placebo was performed one hour prior to the injection of LS174T cells. 1×10^6 LS174T cells were injected into the portal systemic circulation as described in the Animals section above. Chow was returned to cages after injection. On day 1, chow was removed from cages; 3-MPA or placebo was administered via gavage four hours post-chow removal. […]

Lvm3b cells [9] = conditions: K. Bracht, et al. Br J Cancer 103, 340-346 (2010); cited from earlier work

Cc1oncc1C(=O)Nc1ccc(C(F)(F)F)cc1 [leflunomide]
CRC growth in the context of hypoxia (CRC cells [1]; hypoxia (0.5% oxygen)): significantly impaired | impairment of proliferation, hypoxia versus normoxia (CRC cells [1]): impaired proliferation significantly more in the context of hypoxia than under normoxia | impairment of proliferation, hypoxia versus normoxia (CRC cells [1]; listed as Leflunomide): more significant under hypoxia than normoxia | reduction in CRC liver metastatic colonization (Lvm3b cells [2]; 7.5 mg/kg body weight intraperitoneally every day, athymic nude mice, versus DMSO): ~90 fold | liver metastatic colonization of Lvm3b cells (luciferase bioluminescence) (Lvm3b cells [2]; 7.5 mg/kg from day 1, n=4, p<0.0001, Student's t-test): inhibited liver metastatic colonization | survival (Kaplan-Meier) (Lvm3b cells [2]; 7.5 mg/kg, versus control mice, p=0.006): significantly longer survival | primary tumor growth [3]: only modestly impacted

O=c1ccn([C@@H]2O[C@H](CO)[C@@H](O)[C@H]2O)c(=O)[nH]1 [uridine]
rescue of leflunomide-impaired growth upon hypoxia (CRC cells [1]; uridine supplementation, hypoxia, leflunomide treatment): rescued | rescue of leflunomide-induced tumor growth reduction (HS746T cells): rescued | rescue of leflunomide induced tumor growth suppression (GAS HI tumor): rescued | rescue of hypoxic growth defect upon PCK1 depletion (CRC cells [4]): rescued the hypoxic growth defect

N=C(N)NCCC(=O)O [β-GPA, beta-guanidinopropionic acid]
solubility in organic solvents (Solubility of β-GPA; organic solvents): low solubility | solubility (Solubility of β-GPA; water): > 50 mg/mL

O=C(O)c1ncccc1S [3-MPA, 3-mercaptopicolinic acid]
cell growth in vitro (LS174T cells [5]): did not alter cell proliferation in vitro | cell growth in vitro (LS174T cells [5]; listed as 3 MPA): does not alter | mCRC liver colonization in vivo (CRC cells [6]): significantly reduced | subcutaneous tumor growth (LS174T cells [7]): did not, however, alter subcutaneous tumor growth | colorectal cancer liver colonization (LS174T cells [8]): decreased colorectal cancer liver colonization

O=c1[nH]cc(F)c(=O)[nH]1 [5-FU, 5-fluorouracil]
resistance of cells to the drug (Lvm3b cells [9]): highly resistant
